Measured values published in PubChem BioAssay (NCI).
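96-well plates; 48 h exposure; 5 concentrations. Endpoints by linear interpolation between flanking doses. Not reached: highest tested concentration assigned. TGI: total growth inhibition.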

Assays:
Experiment in all cases: NCI tumour cell line growth inhibition, 48 h
CAKI-1 renal = tested on: CAKI-1 renal
MOLT-4 leukemia = tested on: MOLT-4 leukemia
K-562 leukemia = tested on: K-562 leukemia
UACC-62 melanoma = tested on: UACC-62 melanoma
MDA-N = tested on: MDA-N
HS 578T breast = tested on: HS 578T breast
HOP-62 NSCLC = tested on: HOP-62 NSCLC
PC-3 prostate = tested on: PC-3 prostate
SK-MEL-5 melanoma = tested on: SK-MEL-5 melanoma
A549 NSCLC = tested on: A549 NSCLC
BT-549 breast = tested on: BT-549 breast
M14 melanoma = tested on: M14 melanoma
MDA-MB-435 = tested on: MDA-MB-435
A498 renal = tested on: A498 renal
HOP-92 NSCLC = tested on: HOP-92 NSCLC
RPMI-8226 leukemia = tested on: RPMI-8226 leukemia
OVCAR-3 ovarian = tested on: OVCAR-3 ovarian
SW-620 colon = tested on: SW-620 colon
SNB-19 CNS = tested on: SNB-19 CNS

| Compound | TGI (CAKI-1 renal) | TGI (MOLT-4 leukemia) | TGI (K-562 leukemia) | TGI (UACC-62 melanoma) | TGI (MDA-N) | TGI (HS 578T breast) | TGI (HOP-62 NSCLC) | TGI (PC-3 prostate) | TGI (SK-MEL-5 melanoma) | TGI (A549 NSCLC) | TGI (BT-549 breast) | TGI (M14 melanoma) | TGI (MDA-MB-435) | TGI (A498 renal) | TGI (HOP-92 NSCLC) | TGI (RPMI-8226 leukemia) | TGI (OVCAR-3 ovarian) | TGI (SW-620 colon) | TGI (SNB-19 CNS) |
| --- | --- | --- | --- | --- | --- | --- | --- | --- | --- | --- | --- | --- | --- | --- | --- | --- | --- | --- | --- |
| CC1(c2ccc(F)cc2)CC(c2ccc(F)cc2)=C(C#N)C(=C(C#N)C#N)N1 (configuration not stated) | 30.2 µM | 34.8 µM | 38.1 µM | 28.1 µM | 34.3 µM | 64.1 µM | 38.6 µM | 31.4 µM | 28.5 µM | 41.7 µM | 53 µM | 35.6 µM | 32 µM | 35.8 µM | 34.9 µM | > 100 µM | 19.4 µM | 62.1 µM | 35.1 µM |
| CCOC(=O)c1c(N)nn2c1cc1cccccc12 | > 100 µM | > 100 µM |  | 50.8 µM | > 100 µM | 82.8 µM | > 100 µM | 53.7 µM | 69 µM | > 100 µM | 65.2 µM | > 100 µM | > 100 µM | 84.9 µM | 95.8 µM | 45.7 µM | > 100 µM | > 100 µM | > 100 µM |
| C=C1C(=O)O[C@@H]2[C@H]1C[C@@H](O)[C@H](C)[C@@](O)(C(=O)/C=C/C)[C@H]2OC(=O)C(C)CC (some centres not stated) | 2.91 µM | > 36.9 µM | 23.6 µM | 32.9 µM | 10.3 µM | 6.34 µM | 49.2 µM | 51.5 µM | 21.3 µM | 33 µM | 13.3 µM | 9.03 µM | 11.1 µM | 37.7 µM | 9.83 µM | 18.2 µM | 10.4 µM | 6.65 µM | > 68.8 µM |
| CCOC(=O)c1cc2c(ccc3cc(C(=O)OCC)[nH]c32)[nH]1 | > 100 µM | > 100 µM | > 100 µM | > 100 µM | > 100 µM | 58.6 µM | 59 µM | > 100 µM | 98.4 µM | > 100 µM | > 100 µM | > 100 µM | > 100 µM | > 100 µM | > 100 µM | > 100 µM | > 100 µM | > 100 µM | 74.6 µM |
| O=C1CCCCC/C1=C\c1ccc(F)cc1 | > 100 µM | > 100 µM | > 100 µM | > 100 µM | > 100 µM | > 100 µM | > 100 µM | > 100 µM | > 100 µM | > 100 µM | > 100 µM | > 100 µM | > 100 µM | > 100 µM | > 100 µM | > 100 µM | > 100 µM | > 100 µM | > 100 µM |
| COC(OC)C1OC(CO)C(n2cc(C)c(=O)[nH]c2=O)C1O (configuration not stated) | > 100 µM | > 100 µM | > 100 µM | > 100 µM | > 100 µM | > 100 µM | > 100 µM | > 100 µM | > 100 µM | > 100 µM | > 100 µM | > 100 µM | > 100 µM | > 100 µM | > 100 µM | > 100 µM | > 100 µM | > 100 µM | > 100 µM |
| N#Cc1c(-c2ccc(Cl)cc2)cc(-c2ccc(Nc3ccnc4cc(C(F)(F)F)ccc34)cc2)[nH]c1=O | > 64.3 µM | 20.7 µM | 15.6 µM | 39.6 µM | 11.9 µM | > 100 µM | > 57.7 µM | > 100 µM | > 53.4 µM | > 100 µM | 35.5 µM | 13.9 µM | 10.2 µM | > 89.6 µM | 32.7 µM | > 73.7 µM | 20.6 µM | > 84.2 µM | 34.3 µM |
| Cc1nc(C)c(C(=O)NNC(=O)Cc2ccccc2)cc1C(=O)NNC(=O)Cc1ccccc1 | > 100 µM | > 100 µM | > 100 µM | > 100 µM | > 100 µM | > 100 µM | > 100 µM | > 100 µM | > 100 µM | > 100 µM | > 100 µM | > 100 µM | > 100 µM | > 100 µM | > 100 µM | > 100 µM | > 100 µM | > 100 µM | > 100 µM |
| O=C1/C(=C\c2ccc(Cl)cc2Cl)Sc2scc(-c3cccc([N+](=O)[O-])c3)[n+]21 | 8.21 µM | 3.94 µM | > 100 µM | 21.6 µM | 16.7 µM | > 100 µM | 37.1 µM | 33.1 µM | 7.93 µM | 42.3 µM | 18.1 µM | 19.9 µM | 27.8 µM | > 100 µM | 18.3 µM | 26.9 µM | 23.4 µM | > 32.2 µM | 32.5 µM |
| Cc1ccccc1C1CC(=O)CC(c2ccccc2C)C12C(=O)NC(=O)NC2=O (configuration not stated) | > 100 µM | > 100 µM | > 100 µM | > 100 µM | > 82.8 µM | > 100 µM | > 100 µM | > 100 µM | > 100 µM | > 100 µM | > 100 µM | > 100 µM | > 100 µM | > 100 µM | > 100 µM | 97.4 µM | > 100 µM | > 100 µM | > 100 µM |
| O=C1/C(=C/c2cccnc2)C(n2cccc2)c2c(Br)sc(Br)c21 (configuration not stated) | 7.51 µM | 5.34 µM | 7.39 µM | 4.49 µM | 4.24 µM | 9.66 µM | 7.36 µM | 4.86 µM | 21.5 µM | 32.5 µM | 37.6 µM | 4.85 µM | 3.42 µM | 30.4 µM | 4.64 µM | 4.94 µM | 3.31 µM | > 21.9 µM | 9.65 µM |
| CC1=NN(C(=O)CC(=O)Nc2ccccc2C)C(=O)C1N=Nc1ccc(C(=O)O)cc1 (configuration not stated) | > 100 µM | > 100 µM | > 100 µM | > 100 µM | > 100 µM | > 100 µM | > 100 µM | > 100 µM | > 100 µM | > 100 µM | > 100 µM | > 100 µM | > 100 µM | > 100 µM | > 100 µM | > 100 µM | > 100 µM | > 100 µM | > 100 µM |
